Data on eleven molecules can be found in EP4603105A1, “PHARMACEUTICAL COMPOSITION CONTAINING CYCLIC COMPOUND HAVING SELECTIVE KRAS INHIBITORY EFFECT AGAINST HRAS AND NRAS” (CHUGAI SEIYAKU KABUSHIKI KAISHA, priority 2022, dated 2024).

Experiment [1] concerns the target GDP-bound KRAS wild-type protein (Homo sapiens, UniProt P01116). The experiment in a line: Binding to KRAS by surface plasmon resonance (SPR), dissociation constant KD. The method, then:
Surface plasmon resonance was used to analyze the binding affinity of compounds for KRAS, NRAS, and HRAS. The apparatus used was Biacore 8K, 8K+, or T200 (GE Healthcare), and the running buffer used was HBS (10 mM HEPES-NaOH, 150 mM NaCl, pH 7.4) containing 1 mM DTT, 10 mM MgCl2, 0.01% Tween 20, 10 µM GDP, and 4% DMSO.
Biotinylated Avi-tag fusion KRAS, NRAS, and HRAS proteins were expressed in E. coli BL21 (DE3) strains, and after cells were homogenized, they were purified using Streptavidin Mutein Matrix and Superdex 75. After purification, GDP-loaded KRAS, NRAS, and HRAS proteins were immobilized on the surface of Sensor Chip CAP (Cytiva) coated with Biotin CAPture Reagent in an immobilization amount of about 100 to 300 RU. Binding of each compound was evaluated by the Single Cycle Kinetics method, and a running buffer or a compound solution was added to the RAS protein non-immobilized surface and the immobilized surface to obtain a binding response. The flow rate was set to 100 µL/min, and in the compound-adding cycle, compound solutions having different concentrations were intermittently added for 75 seconds each, starting from a low concentration. […] In the blank cycle, a running buffer was intermittently added and not the compound solution. The Biotin CAPture Reagent and RAS proteins were immobilized for each cycle, and at the end of each cycle, the sensor chip was regenerated by the regeneration solution appended to the Biotin CAPture Kit (Cytiva). Measurement was carried out at 30°C.
The resulting sensorgram was subjected to curve fitting based on a 1:1 binding model on Biacore Insight Evaluation Software or T200 Evaluation Software, and thereby the dissociation constant KD of each compound with respect to KRAS, NRAS, and HRAS was determined. […] Blank indicates a compound from which the KD value with respect to NRAS or HRAS was not obtained.

Experiment [2] deals with GDP-bound NRAS wild-type protein (Homo sapiens, UniProt P01111). The experiment in a line: Binding to NRAS by surface plasmon resonance (SPR), KD and KD ratio to KRAS. Summed up:
(§1)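 Running buffer contained 10 µM GDP and 10 mM MgCl2 to keep RAS in the GDP state, with 4% DMSO at pH 7.4. Compounds were flowed at 100 µL/min in 75 s steps of rising concentration over captured biotin-Avi RAS at 30°C. Sensorgrams were fitted 1:1 for KD.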

The next experiment addresses HRAS wild-type protein (Homo sapiens, UniProt P01112). The experiment in a line: Binding to HRAS by surface plasmon resonance (SPR), KD and KD ratio to KRAS. Summed up: as §1
Experiment [3] has as its system human lung cancer strain NCI-H441. In kind it is cell-based. Summed up: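 Step one: dispense the test compound in serial DMSO dilutions. Step three: add the reagent and measure […].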
The mark [4] stands for this setting: Single Cycle Kinetics, 1:1 binding model.
Where [5] appears, read: ratio of the KD value with respect to GDP-bound NRAS wild-type protein to the KD value with respect to KRAS.
The mark [6] stands for this setting: ratio of the KD value with respect to HRAS wild-type protein to the KD value with respect to KRAS.
Setting [7] is: ratio of KD for GDP-bound NRAS wild-type protein to KD for KRAS.
Where [8] appears, read: ratio of KD for HRAS wild-type protein to KD for KRAS.
Setting [9] is: ratio of KD value for GDP-bound NRAS wild-type protein to KD value for KRAS (SPR).
Where [10] appears, read: ratio of KD value for HRAS wild-type protein to KD value for KRAS (SPR).

GDP-bound NRAS wild-type protein, sequence (P01111 whole entry): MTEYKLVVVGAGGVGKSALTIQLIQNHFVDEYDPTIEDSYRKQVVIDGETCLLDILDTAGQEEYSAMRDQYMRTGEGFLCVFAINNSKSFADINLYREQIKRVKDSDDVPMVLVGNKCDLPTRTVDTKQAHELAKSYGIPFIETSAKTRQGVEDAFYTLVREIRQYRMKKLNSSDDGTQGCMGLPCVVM
GDP-bound KRAS wild-type protein, sequence (P01116 1-188 isoform P01116-2): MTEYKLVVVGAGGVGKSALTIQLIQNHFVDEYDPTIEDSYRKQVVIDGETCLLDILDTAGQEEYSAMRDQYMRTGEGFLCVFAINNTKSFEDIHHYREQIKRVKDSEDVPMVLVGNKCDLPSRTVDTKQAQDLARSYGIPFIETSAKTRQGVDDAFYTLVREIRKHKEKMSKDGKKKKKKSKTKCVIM
HRAS wild-type protein, sequence (P01112 whole entry): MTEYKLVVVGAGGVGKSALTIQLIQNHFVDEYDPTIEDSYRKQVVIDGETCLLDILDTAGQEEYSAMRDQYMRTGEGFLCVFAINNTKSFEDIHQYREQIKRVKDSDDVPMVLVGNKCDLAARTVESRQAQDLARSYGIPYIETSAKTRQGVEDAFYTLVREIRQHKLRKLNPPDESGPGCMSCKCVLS

The molecule `CCO[C@@H]1C[C@H]2C(=O)NC3(CC(C)(C)C3)C(=O)N(C)[C@@H](C(CC)CC)C(=O)N(C)[C@H](C(=O)N(C)C)CC(=O)N(C)[C@@H](CC(C)C)C(=O)N[C@@H]([C@@H](C)CC)C(=O)N(C)CC(=O)N(C)[C@H]3C/C=C\CCN(C3=O)[C@@H](Cc3ccc(C)cc3)C(=O)N(C)CC(=O)N[C@@H](CCc3cc(F)c(C(F)(F)F)c(F)c3)C(=O)N2C1` [PP2141] registered a Kd in experiment [1] (setting [4]) of 0.17 nM. Further, the “NRAS /KRAS” value in experiment [2] (setting [5]) was “A (a compound having 10 or more and less than 20 is denoted as A)”. In addition, the “HRAS /KRAS” value on HRAS wild-type protein (setting [6]) is “A (a compound having 10 or more and less than 20 is denoted as A)”. For the same molecule, in experiment [3], half-maximal inhibition (IC50) was put at 9.4 nM.

`CCO[C@@H]1C[C@H]2C(=O)NC(C)(C)C(=O)N(C)[C@@H](C3CCCC3)C(=O)N(CC)[C@H](C(=O)N3CCOCC3)CC(=O)N(C)[C@@H](CC(C)C)C(=O)N[C@@H]([C@@H](C)CC)C(=O)N(C)CC(=O)N(C)[C@H]3CCCCCN(C3=O)[C@@H](Cc3ccc(C(F)(F)F)cc3)C(=O)N(C)CC(=O)N[C@@H](CCc3cc(F)c(C(F)(F)F)c(F)c3)C(=O)N2C1` [PP0958] yielded a Kd in experiment [1] (Single Cycle Kinetics) of 7.5 nM. In experiment [2] (setting [7]), the “NRAS /KRAS” value is “B (a compound having 3 or more and less than 10 is denoted as B)”. The “HRAS /KRAS” value at HRAS wild-type protein (setting [8]) is “B (a compound having 3 or more and less than 10 is denoted as B)”. For the same molecule, in experiment [3], the IC50 was found to be 1040 nM.

For `CC[C@H](C)[C@@H]1NC(=O)[C@H](Cc2cccc(Cl)c2)N(C)C(=O)C[C@@H](C(=O)N2CCOCC2)N(C)C(=O)[C@H](C2CCCC2)N(C)C(=O)C2(CCCC2)NC(=O)[C@@H]2CCCN2C(=O)[C@H](CCc2ccc(C(F)(F)F)c(Cl)c2)NC(=O)CN(C)C(=O)[C@H](Cc2ccc(F)cc2)N2CCCCC[C@@H](C2=O)N(C)C(=O)CN(C)C1=O` [PP0963], in experiment [1] (Single Cycle Kinetics), the Kd came to 0.78 nM. Further, the “NRAS /KRAS” value in experiment [2] (setting [7]) was “B (a compound having 3 or more and less than 10 is denoted as B)”. At HRAS wild-type protein (setting [8]), the “HRAS /KRAS” value is “B (a compound having 3 or more and less than 10 is denoted as B)”. Moreover, in experiment [3], the IC50 came out at 100 nM.

As to `CCO[C@@H]1C[C@H]2C(=O)NC3(CCCC3)C(=O)N(C)[C@@H](C3CCCC3)C(=O)N(C)[C@H](C(=O)N3CCOCC3)CC(=O)N(C)[C@@H](CC(C)C)C(=O)N[C@@H]([C@@H](C)CC)C(=O)N(C)CC(=O)N(C)[C@H]3CCCCCN(C3=O)[C@@H](Cc3ccc(F)cc3)C(=O)N(C)CC(=O)N[C@@H](CCc3ccc(C(F)(F)F)c(Cl)c3)C(=O)N2C1` [PP0965], the Kd in experiment [1] (Single Cycle Kinetics) worked out at 0.57 nM. Also, the “NRAS /KRAS” value in experiment [2] (setting [7]) is “B (a compound having 3 or more and less than 10 is denoted as B)”. Further, the “HRAS /KRAS” value at HRAS wild-type protein (setting [8]) is “B (a compound having 3 or more and less than 10 is denoted as B)”. In experiment [3], this molecule yielded an IC50 of 48.8 nM.

Molecule `CCCN(C)C(=O)[C@@H]1CC(=O)N(C)[C@@H](CCOC)C(=O)N[C@@H]([C@@H](C)CC)C(=O)N(C)CC(=O)N(C)[C@H]2C/C=C\CCN(C2=O)[C@@H](Cc2ccc(C(F)(F)F)cc2)C(=O)N(C)CC(=O)N[C@@H](CCc2ccc(C(F)(F)F)c(OC)c2)C(=O)N2C[C@@H](C)C[C@H]2C(=O)NC2(CCC2)C(=O)N(C)[C@@H](C2CCCC2)C(=O)N1C` [PP2029] showed a Kd in experiment [1] (setting [4]) of 0.069 nM. Moreover, in experiment [2] (setting [5]), the “NRAS /KRAS” value was “A (a compound having 10 or more and less than 20 is denoted as A)”. On HRAS wild-type protein (setting [6]), the “HRAS /KRAS” value is “B (a compound having 3 or more and less than 10 is denoted as B)”. Moreover, the IC50 in experiment [3] was 18.9 nM.

In turn, `CCO[C@@H]1C[C@H]2C(=O)NC3(CC(C)(C)C3)C(=O)N(C)[C@@H](C(CC)CC)C(=O)N(C)[C@H](C(=O)N3CCCC3)CC(=O)N(C)[C@@H](COC)C(=O)N[C@@H]([C@@H](C)CC)C(=O)N(C)CC(=O)N(C)[C@H]3C/C=C\CCN(C3=O)[C@@H](Cc3ccc(C)cc3)C(=O)N(C)CC(=O)N[C@@H](CCc3cc(F)c(C(F)(F)F)c(F)c3)C(=O)N2C1` [PP2139] displayed a Kd in experiment [1] (setting [4]) of 0.38 nM. Moreover, the “NRAS /KRAS” value in experiment [2] (setting [5]) is “AA (a compound having 20 or more is denoted as AA)”. Further, the “HRAS /KRAS” value at HRAS wild-type protein (setting [6]) was “A (a compound having 10 or more and less than 20 is denoted as A)”. Further, the IC50 in experiment [3] is 38 nM.

`CC[C@H](C)[C@@H]1NC(=O)[C@H](C2CC2)N(C)C(=O)C[C@@H](C(=O)N(C)CC)N(C)C(=O)[C@H](C2CCCC2)N(C)C(=O)C2(CC(C)(C)C2)NC(=O)[C@@H]2C[C@H](C)CN2C(=O)[C@H](CCc2cc(F)c(C(F)(F)F)c(F)c2)NC(=O)CN(C)C(=O)[C@H](Cc2ccc(C(F)(F)F)cc2)N2CC/C=C\C[C@@H](C2=O)N(C)C(=O)CN(C)C1=O` [PP1980] gave a Kd in experiment [1] (setting [4]) of 0.36 nM. Also, the “NRAS /KRAS” value in experiment [2] (setting [5]) is “A (a compound having 10 or more and less than 20 is denoted as A)”. The “HRAS /KRAS” value on HRAS wild-type protein (setting [6]) is “B (a compound having 3 or more and less than 10 is denoted as B)”. This molecule also returned an IC50 in experiment [3] of 30.1 nM.

In turn, `CC[C@H](C)[C@@H]1NC(=O)[C@H](CC(C)C)N(C)C(=O)C[C@@H](C(=O)N2CCOCC2)N(C)C(=O)[C@H](C2CCCC2)N(C)C(=O)C2(CCC2)NC(=O)[C@@H]2[C@H]3C[C@H]3CN2C(=O)[C@H](CCc2cc(F)c(C(F)(F)F)c(F)c2)NC(=O)CN(C)C(=O)[C@H](Cc2ccc(C(F)(F)F)cc2)N2CCCCC[C@@H](C2=O)N(C)C(=O)CN(C)C1=O` [PP0819] came in with a Kd in experiment [1] (Single Cycle Kinetics) of 0.56 nM. Also, the “NRAS /KRAS” value in experiment [2] (setting [7]) is “A (a compound having 10 or more and less than 20 is denoted as A)”. The “HRAS /KRAS” value at HRAS wild-type protein (setting [8]) is “B (a compound having 3 or more and less than 10 is denoted as B)”. In experiment [3], this molecule showed a half-inhibitory concentration (IC50) of 75.7 nM.

For the molecule `CCC[C@H]1C(=O)N[C@@H]([C@@H](C)CC)C(=O)N(C)CC(=O)N(C)[C@H]2C/C=C\CCN(C2=O)[C@@H](Cc2ccc(C)cc2)C(=O)N(C)CC(=O)N[C@@H](CCc2ccc(C(F)(F)F)c(OC)c2)C(=O)N2C[C@H](C)C[C@H]2C(=O)NC2(CCC2)C(=O)N(C)[C@@H](C2CCCC2)C(=O)N(C)[C@H](C(=O)N(C)C)CC(=O)N1C` [PP1859], the Kd in experiment [1] (setting [4]) was 0.14 nM. Moreover, the “NRAS /KRAS” value in experiment [2] (setting [9]) is “A (a compound having 10 or more and less than 20 is denoted as A)”. For the same molecule, the “HRAS /KRAS” value at HRAS wild-type protein (setting [10]) is “A (a compound having 10 or more and less than 20 is denoted as A)”. This molecule also came in with an IC50 in experiment [3] of 28.8 nM.

As for `CCC[C@H]1C(=O)N[C@@H]([C@@H](C)CC)C(=O)N(C)CC(=O)N(C)[C@H]2C/C=C\CCN(C2=O)[C@@H](Cc2ccc(C)cc2)C(=O)N(C)CC(=O)N[C@@H](CCc2cc(F)c(C(F)(F)F)c(F)c2)C(=O)N2C[C@@H](C)C[C@H]2C(=O)NC2(CCC2)C(=O)N(C)[C@@H](C2CCCC2)C(=O)N(C)[C@H](C(=O)N(C)CC)CC(=O)N1C` [PP1860], in experiment [1] (setting [4]), binding was put at a Kd of 0.11 nM. The “NRAS /KRAS” value in experiment [2] (setting [9]) was “A (a compound having 10 or more and less than 20 is denoted as A)”. Also, the “HRAS /KRAS” value on HRAS wild-type protein (setting [10]) is “A (a compound having 10 or more and less than 20 is denoted as A)”. In experiment [3], the IC50 amounted to 10.3 nM.

As for `CCO[C@@H]1C[C@H]2C(=O)NC3(CC(C)(C)C3)C(=O)N(C)[C@@H](C3CCCC3)C(=O)N(C)[C@H](C(=O)N(C)C)CC(=O)N(C)[C@@H]([C@@H](C)OC)C(=O)N[C@@H]([C@@H](C)CC)C(=O)N3CCC[C@H]3C(=O)N(C)[C@H]3C/C=C\CCN(C3=O)[C@@H](Cc3ccc(C(F)(F)F)cc3)C(=O)N(C)CC(=O)N[C@@H](CCc3ccc(C(F)(F)F)c(OC)c3)C(=O)N2C1` [PP3204], in experiment [1] (1:1 binding model), binding was put at a Kd of 0.4 nM. The “NRAS /KRAS” value in experiment [2] (setting [7]) was “A (a compound having 10 or more and less than 20 is denoted as A)”. Also, the “HRAS /KRAS” value at HRAS wild-type protein (setting [8]) is “A (a compound having 10 or more and less than 20 is denoted as A)”. For the same molecule, the IC50 in experiment [3] was found to be 29.2 nM.
